Assay results from patent US5162571A, “Phenol derivatives, their production and use” (Takeda Chemical Industries, Ltd., priority 1987, dated 1992).

Tests used:
[1] = target: T1, 5-Lipoxygenase (Rattus norvegicus, UniProt P12527); assay: 5-Lipoxygenase inhibitory activity (5-HETE production in RBL-1 cells); format: cell-based; conditions: read-out: Inhibitory effect on 5-HETE production (%)
T1 construct: RBL-1 cells (rat basophilic leukemia cells); endogenous in cells; host or cells: RBL-1 (rat basophilic leukemia cells)
T1 sequence (P12527 1-673): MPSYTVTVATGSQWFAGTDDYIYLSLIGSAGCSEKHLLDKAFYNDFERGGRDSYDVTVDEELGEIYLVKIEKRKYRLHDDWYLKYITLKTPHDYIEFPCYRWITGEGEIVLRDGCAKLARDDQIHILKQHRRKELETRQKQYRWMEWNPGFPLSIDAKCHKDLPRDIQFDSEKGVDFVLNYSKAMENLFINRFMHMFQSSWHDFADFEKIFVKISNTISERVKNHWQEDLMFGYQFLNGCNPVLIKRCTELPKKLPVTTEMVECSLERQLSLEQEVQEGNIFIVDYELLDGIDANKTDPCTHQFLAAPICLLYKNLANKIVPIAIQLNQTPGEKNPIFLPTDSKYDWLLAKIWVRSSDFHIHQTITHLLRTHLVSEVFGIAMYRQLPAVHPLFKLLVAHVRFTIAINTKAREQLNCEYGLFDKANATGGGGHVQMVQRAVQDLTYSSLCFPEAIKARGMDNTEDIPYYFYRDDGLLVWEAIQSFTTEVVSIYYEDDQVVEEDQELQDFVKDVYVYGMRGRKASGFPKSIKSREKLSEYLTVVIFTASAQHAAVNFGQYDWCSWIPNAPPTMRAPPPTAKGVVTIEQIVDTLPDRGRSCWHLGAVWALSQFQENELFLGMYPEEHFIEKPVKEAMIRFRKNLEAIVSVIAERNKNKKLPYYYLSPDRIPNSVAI
Procedure: 5-Lipoxygenase inhibitory activity
Method: 10^7 RBL-1 cells (rat basophilic leukemia cells) were suspended in 0.5 ml of MCM (mast cell medium), and test solutions (made up of 0.5 ml of MCM, 50 μg of arachidonic acid, 10 μg of A-23187 (calcium ionophore) and 1 μM, 0.01 μM and 0.001 μM as the final concentration of the phenol compound, respectively) prepared previously were added respectively to the suspension, followed by reaction at 37° C. for 20 minutes. After the conclusion of the reaction, 4 ml of ethanol and 1,4-dimethoxy-2-methyl-3-(3-methoxypropyl)naphthalene as the internal reference drug were added to the reaction solution, and the mixture was shaken thoroughly and allowed to stand at room temperature for 10 minutes. Then, it was centrifuged (2000 r.p.m.) for 10 minutes, and the supernatant fluid was separated and concentrated to dryness under reduced pressure. 0.5 ml of 60% aqueous methanol was added to the concentrate, and 100 μl of the resulting solution was taken and subjected to high-performance liquid chromatography to determine the amount of 5-HETE (5-hydroxy-eicosatetraenoic acid). Determination of 5-HETE was made through measurement of an absorption at 237 nm with a UV absorption monitor.
The 5-HETE production inhibitory effect (IE) was expressed by [formula] wherein a is a peak height or peak area corrected by the peak for the internal reference when the phenol compound is not contained; b is a peak height or peak area corrected by the peak for the internal reference when the phenol compound is contained.

[2] = Extension of bleeding time; format: in vivo, rat; conditions: one hour before
Procedure: Extension of bleeding time
Method: Test compounds were administered orally to rats one hour before the experiments. The rats were anesthetized and the tail was cut at 1.5 mm from the tip. Immediately, the tail was hung down into a physiological saline warmed at 37° C. The time required from initiation to stop of bleeding (bleeding time) was measured.

[3] = tested on: U-46619 (TXA2 mimic)-induced broncho-constriction; assay: Inhibitory effect on U-46619 (TXA2 mimic)-induced broncho-constriction in guinea pig; format: in vivo; conditions: Cavia porcellus, iv; 0.31 mg/kg i.v., 9 minutes before U-46619; ** p < 0.01
Procedure: Inhibitory effect on U-46619 (TXA2 mimic)-induced broncho-constrictionin guinea pig
Method: Eight male Hartley guinea pigs were used per one group. The guinea pig anesthetized with urethane (1.5 g/kg, i.p.) was fixed in a dorsal position, subjected to tracheotomy and connected to a respirator through a cannula. A side branch of the tracheal cannula was connected to a respirator (Harvard apparatus rodent respirator Type 680) at the rate of 70 strokes/min. and a constant volume of 3 to 5 ml.
Inflation pressure was kept constant at 10 cm H2 O.
After treatment with gallamine triethiodide (1 mg/kg, i.v.), U-46619 (10 μg/Kg) dissolved in a physiological saline solution was given through a carotid cannula and the airway resistance was measured by the overflow technique of Konzett-Rossler method (Konzett, H. and Rossler, R., Naunyn-Schmiedegerg's Arch, Exp. Path. Pharmak., 195, 71-74 (1940). A test compound was suspended in 5% gum arabic solution and was administered orally 1 hour before the treatment with U-46619.
Alternatively, a test compound was dissolved in aqueous 50% dimethylsulfoxide solution and administered interveneously in the dosage of 0.1 ml/100 g body weight 9 minutes before the treatment of U-46619.

Cc1c(C)c(Br)c(C)c(C(CCCCCC(=O)O)c2ccc(F)cc2)c1O (centres unmarked) [Compound 12, 7-(5-bromo-2-hydroxy-3,4,6-trimethylphenyl)-7-(4-fluorophenyl)heptanoic acid]
inhibition at 10 µM ([1]; 10^-5 M): 96% | inhibition at 1 µM ([1]; 10^-6 M): 22% | Bleeding time ([2]; 10 mg/kg oral, control 173 ± 23, * p < 0.05): 272 ± 52 s | Bleeding time ([2]; 30 mg/kg oral, control 164 ± 27, ** p < 0.01): 258 ± 14 s | inhibition in vivo at 0.31 mg/kg [3]: 96%
